pIC50: −log10 of the molar value. Structures can show the parent of a compound that is named as a salt. Where two headings read alike, the source gives them in different places.

This note sets out measurements from patent US10246453B2, “Benzenesulfonamide compounds and their use as therapeutic agents” (Xenon Pharmaceuticals Inc., priority 2016, dated 2019).

In series [1] the target is T1, NaV1.1 (Homo sapiens (Human), UniProt P35498). Briefly: Sodium Influx Assay (Flux), NaV1.1. Format: cell-based. The note with it: Trex HEK293 cells, ANG2 dye; arithmetic mean.
Series [2] has as its target T2, NaV1.6 (Homo sapiens (Human), UniProt Q9UQD0). The series can be described thus: Electrophysiological Assay (EP), patch voltage clamp, NaV1.6. The format is cell-based. Conditions: HEK-293 cells, whole-cell patch clamp, inactivated state; arithmetic mean. (In patch-clamp work, channel activity is measured electrically.)
Series [3] concerns the target T3, NaV1.5 (Homo sapiens (Human), UniProt Q14524). The series can be described thus: Electrophysiological Assay (EP), patch voltage clamp, NaV1.5. Format: cell-based. Conditions: HEK-293 cells, whole-cell patch clamp, inactivated state; arithmetic mean. As for the experimental part:
Sodium currents were measured using the patch clamp technique in the whole-cell configuration using either a PatchXpress automated voltage clamp or manually using an Axopatch 200B (Axon Instruments) or Model 2400 (A-M systems) amplifier.
In some studies, the external sodium was reduced by equimolar replacement with choline. […] All recordings were performed at ambient temperature in a bath chamber with a volume of 150 μL. Control sodium currents were measured in 0.5% DMSO. Controls and representative compounds of the invention were applied to the recording chamber through a 4-pinch or 8-pinch valve bath perfusion system manufactured by ALA Scientific Instruments.
Series resistance compensation was applied (60-80%). […] All statistics in this study are given as mean±SD.
The membrane potential was maintained at a voltage where inactivation of the channel is complete. The voltage is then stepped back to a very negative (Vhold=−150 mV) voltage for 20 ms and then a test pulse is applied to quantify the compound block. […] The percent decrease in sodium current following wash-on of compound was taken as the percent block of sodium channels.

For series [4], the target named is T1, NaV1.1. The series can be described thus: Electrophysiological Assay (EP), patch voltage clamp, NaV1.1. The format is cell-based. Conditions: HEK-293 cells, whole-cell patch clamp, inactivated state; arithmetic mean.
Series [5] deals with T2, NaV1.6. The series can be described thus: Sodium Influx Assay (Flux), NaV1.6. The note with it: read-out: Flux NaV1.6 IC50; Trex HEK293 cells, ANG2 dye; arithmetic mean.
Series [6] addresses T3, NaV1.5. Briefly: Sodium Influx Assay (Flux), NaV1.5. The note with it: read-out: Flux NaV1.5 IC50; Trex HEK293 cells, ANG2 dye; arithmetic mean.
Series [7] addresses T3, NaV1.5.

T3 sequence (Q14524 other isoform, or with tags, fused parts or gaps): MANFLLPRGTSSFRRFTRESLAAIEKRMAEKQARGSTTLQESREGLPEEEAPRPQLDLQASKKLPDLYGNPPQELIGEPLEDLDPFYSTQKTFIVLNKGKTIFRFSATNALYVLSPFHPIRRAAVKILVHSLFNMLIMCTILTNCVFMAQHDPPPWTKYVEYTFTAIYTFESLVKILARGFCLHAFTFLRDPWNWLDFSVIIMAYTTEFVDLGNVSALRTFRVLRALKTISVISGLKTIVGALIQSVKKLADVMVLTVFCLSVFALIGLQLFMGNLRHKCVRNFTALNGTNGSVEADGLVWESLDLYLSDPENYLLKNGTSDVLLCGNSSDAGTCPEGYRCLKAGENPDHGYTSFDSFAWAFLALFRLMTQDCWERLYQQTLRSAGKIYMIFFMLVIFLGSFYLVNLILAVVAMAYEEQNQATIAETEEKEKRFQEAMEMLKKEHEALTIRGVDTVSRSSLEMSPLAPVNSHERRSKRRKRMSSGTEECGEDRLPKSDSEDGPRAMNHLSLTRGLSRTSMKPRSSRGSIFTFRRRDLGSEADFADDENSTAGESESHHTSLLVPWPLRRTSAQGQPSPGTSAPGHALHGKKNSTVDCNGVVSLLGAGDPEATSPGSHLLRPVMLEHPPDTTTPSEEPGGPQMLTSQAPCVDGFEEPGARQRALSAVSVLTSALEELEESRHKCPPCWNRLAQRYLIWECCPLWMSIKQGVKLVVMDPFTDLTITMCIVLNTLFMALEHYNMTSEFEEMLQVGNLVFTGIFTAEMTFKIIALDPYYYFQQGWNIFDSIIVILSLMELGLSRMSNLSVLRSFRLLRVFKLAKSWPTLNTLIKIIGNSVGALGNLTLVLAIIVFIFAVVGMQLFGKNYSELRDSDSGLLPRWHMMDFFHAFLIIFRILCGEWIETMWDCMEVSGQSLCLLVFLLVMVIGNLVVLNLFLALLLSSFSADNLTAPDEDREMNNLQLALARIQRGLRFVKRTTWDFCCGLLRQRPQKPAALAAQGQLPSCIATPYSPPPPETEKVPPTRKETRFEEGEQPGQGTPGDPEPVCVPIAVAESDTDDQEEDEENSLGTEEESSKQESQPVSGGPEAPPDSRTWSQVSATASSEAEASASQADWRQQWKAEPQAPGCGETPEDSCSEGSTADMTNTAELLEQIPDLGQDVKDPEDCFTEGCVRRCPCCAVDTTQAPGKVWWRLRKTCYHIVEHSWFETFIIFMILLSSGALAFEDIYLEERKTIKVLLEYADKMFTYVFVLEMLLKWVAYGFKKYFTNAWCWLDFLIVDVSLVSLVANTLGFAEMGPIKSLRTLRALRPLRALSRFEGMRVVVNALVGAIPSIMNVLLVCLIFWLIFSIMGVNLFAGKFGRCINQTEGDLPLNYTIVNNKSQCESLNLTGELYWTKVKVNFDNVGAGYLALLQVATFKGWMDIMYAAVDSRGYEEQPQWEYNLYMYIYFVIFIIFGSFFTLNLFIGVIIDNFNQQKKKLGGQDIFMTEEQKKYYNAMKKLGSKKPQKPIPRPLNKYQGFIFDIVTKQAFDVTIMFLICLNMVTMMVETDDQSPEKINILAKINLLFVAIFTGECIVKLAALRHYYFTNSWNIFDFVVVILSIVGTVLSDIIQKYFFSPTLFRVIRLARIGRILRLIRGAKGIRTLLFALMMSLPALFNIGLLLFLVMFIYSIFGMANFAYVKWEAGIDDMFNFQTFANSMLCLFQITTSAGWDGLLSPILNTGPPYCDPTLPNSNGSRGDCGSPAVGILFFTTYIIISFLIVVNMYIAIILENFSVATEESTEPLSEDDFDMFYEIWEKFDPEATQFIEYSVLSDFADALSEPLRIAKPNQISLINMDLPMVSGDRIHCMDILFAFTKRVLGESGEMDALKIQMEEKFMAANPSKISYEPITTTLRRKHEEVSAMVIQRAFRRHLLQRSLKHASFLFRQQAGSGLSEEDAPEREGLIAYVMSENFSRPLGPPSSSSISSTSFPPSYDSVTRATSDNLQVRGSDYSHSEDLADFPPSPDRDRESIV
T2 sequence (Q9UQD0 whole entry): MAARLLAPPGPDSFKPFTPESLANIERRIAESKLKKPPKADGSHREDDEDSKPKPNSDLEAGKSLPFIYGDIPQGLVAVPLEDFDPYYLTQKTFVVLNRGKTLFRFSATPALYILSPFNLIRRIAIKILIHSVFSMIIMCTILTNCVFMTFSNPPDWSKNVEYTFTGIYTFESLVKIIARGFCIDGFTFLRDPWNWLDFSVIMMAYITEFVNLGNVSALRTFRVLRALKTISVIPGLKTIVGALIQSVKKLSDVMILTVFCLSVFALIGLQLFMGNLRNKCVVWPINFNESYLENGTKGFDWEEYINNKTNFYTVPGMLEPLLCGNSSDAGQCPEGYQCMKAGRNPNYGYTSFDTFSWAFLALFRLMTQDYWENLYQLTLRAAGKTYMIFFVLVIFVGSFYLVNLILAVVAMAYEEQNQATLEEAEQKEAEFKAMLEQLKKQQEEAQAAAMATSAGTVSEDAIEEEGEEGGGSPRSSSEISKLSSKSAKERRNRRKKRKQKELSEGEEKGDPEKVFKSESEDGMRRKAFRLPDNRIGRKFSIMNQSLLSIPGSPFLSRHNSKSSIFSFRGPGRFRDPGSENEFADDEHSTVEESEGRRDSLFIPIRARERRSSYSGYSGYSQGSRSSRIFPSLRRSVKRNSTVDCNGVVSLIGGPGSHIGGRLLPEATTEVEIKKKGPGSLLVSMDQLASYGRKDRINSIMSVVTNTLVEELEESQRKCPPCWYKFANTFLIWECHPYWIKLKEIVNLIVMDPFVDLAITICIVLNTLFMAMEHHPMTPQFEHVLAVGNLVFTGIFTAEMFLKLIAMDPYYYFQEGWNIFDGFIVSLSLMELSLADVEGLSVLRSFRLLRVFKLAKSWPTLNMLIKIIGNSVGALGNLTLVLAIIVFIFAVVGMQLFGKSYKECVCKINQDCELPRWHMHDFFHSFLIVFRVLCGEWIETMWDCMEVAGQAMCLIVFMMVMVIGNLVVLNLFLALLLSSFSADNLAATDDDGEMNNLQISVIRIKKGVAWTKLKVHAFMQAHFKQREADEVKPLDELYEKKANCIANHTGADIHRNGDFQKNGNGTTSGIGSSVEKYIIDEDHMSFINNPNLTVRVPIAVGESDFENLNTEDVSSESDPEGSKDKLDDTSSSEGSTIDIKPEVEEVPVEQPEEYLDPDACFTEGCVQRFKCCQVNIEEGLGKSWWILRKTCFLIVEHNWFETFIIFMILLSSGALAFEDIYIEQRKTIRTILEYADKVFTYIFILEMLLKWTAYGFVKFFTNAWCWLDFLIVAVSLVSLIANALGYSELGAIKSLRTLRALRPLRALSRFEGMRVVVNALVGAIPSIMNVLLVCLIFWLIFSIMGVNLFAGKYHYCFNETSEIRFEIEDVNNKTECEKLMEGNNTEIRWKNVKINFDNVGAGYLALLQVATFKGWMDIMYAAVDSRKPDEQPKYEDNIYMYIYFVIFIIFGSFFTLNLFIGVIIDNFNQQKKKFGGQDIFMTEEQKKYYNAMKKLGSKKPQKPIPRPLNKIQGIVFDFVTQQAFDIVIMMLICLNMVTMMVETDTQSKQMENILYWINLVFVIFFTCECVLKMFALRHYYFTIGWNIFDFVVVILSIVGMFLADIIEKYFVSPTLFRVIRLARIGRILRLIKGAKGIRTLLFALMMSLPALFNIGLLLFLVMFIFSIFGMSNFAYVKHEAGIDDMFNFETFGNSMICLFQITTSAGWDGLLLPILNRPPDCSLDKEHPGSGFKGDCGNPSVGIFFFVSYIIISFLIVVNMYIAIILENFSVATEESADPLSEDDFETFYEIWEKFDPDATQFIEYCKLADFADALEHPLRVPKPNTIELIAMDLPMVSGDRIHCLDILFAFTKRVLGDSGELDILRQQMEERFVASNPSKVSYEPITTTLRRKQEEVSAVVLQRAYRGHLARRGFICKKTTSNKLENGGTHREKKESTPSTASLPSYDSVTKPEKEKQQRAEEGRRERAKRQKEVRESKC

Broadly, the pIC50 is the IC50 on a negative log10 scale, so that one unit is a factor of ten. In the case of `Cc1c(N(C)[C@H]2CCN(Cc3ccccc3)C2)cc(F)c(S(=O)(=O)Nc2cccc(F)n2)c1F` [Example 298, (S)-4-((1-benzylpyrrolidin-3-yl)(methyl)amino)-2,6-difluoro-N-(6-fluoropyridin-2-yl)-3-methylbenzenesulfonamide formate], the pIC50 is 4.58 on NaV1.1 [1]; 7.37 on NaV1.6 [2]; less than 5.00 at NaV1.5 [3]; less than 5.00 against NaV1.1 [4]; 7.10 on NaV1.6 [5]; less than 4.52 at NaV1.5 [6].
Consider `CN(c1ccc(S(=O)(=O)Nc2cscn2)cc1Cl)[C@H]1CCN(Cc2cc(Cl)ccc2F)C1` [Example 254, (S)-3-chloro-4-((1-(5-chloro-2-fluorobenzyl)pyrrolidin-3-yl)(methyl)amino)-N-(thiazol-4-yl)benzenesulfonamide formate], for which the pIC50 on NaV1.1 [1] is 5.63; against NaV1.5 [3] it was 4.77; on NaV1.6 [5], 5.94; on NaV1.5 [6], 6.02.
For the molecule `CN(c1ccc(S(=O)(=O)Nc2ncns2)cc1Cl)[C@H]1CCN(Cc2ccccc2)C1` [Example 29, (S)-4-((1-benzylpyrrolidin-3-yl)(methyl)amino)-3-chloro-N-(1,2,4-thiadiazol-5-yl)benzenesulfonamide hydrochloride salt], the pIC50 against NaV1.1 [1] is less than 4.52; against NaV1.6 [2], 7.22; against NaV1.5 [3], less than 5.00; on NaV1.1 [4], less than 5.00; at NaV1.6 [5], 6.61; on NaV1.5 [6], 4.53.
Turning to `O=S(=O)(Nc1nccs1)c1ccc(N[C@@H]2CCN(Cc3ccccc3F)C2)c(Cl)c1` [Example 71, (R)-3-chloro-4-((1-(2-fluorobenzyl)pyrrolidin-3-yl)amino)-N-(thiazol-2-yl)benzenesulfonamide], the pIC50 was 5.47 against NaV1.1 [1], 6.06 on NaV1.5 [3], 5.90 on NaV1.6 [5] and 5.03 on NaV1.5 [6].
Regarding `O=S(=O)(Nc1cscn1)c1ccc(O[C@@H]2C[C@H]3CC[C@@H](C2)N3Cc2ccccc2)c(Cl)c1` [Example 318, 4-(((1R,3s,5S)-8-benzyl-8-azabicyclo[3.2.1]octan-3-yl)oxy)-3-chloro-N-(thiazol-4-yl)benzenesulfonamide], the pIC50 against NaV1.1 [1] is 4.86; against NaV1.6 [2] it was 5.94; on NaV1.1 [4], less than 5.00; against NaV1.5 [7], 4.76; at NaV1.6 [5], 5.26.
With `O=S(=O)(Nc1nccs1)c1cc(Cl)c(O[C@@H]2C[C@H]3CC[C@@H](C2)N3Cc2ccccc2)cc1F` [Example 17, 4-(((1R,3s,5S)-8-benzyl-8-azabicyclo[3.2.1]octan-3-yl)oxy)-5-chloro-2-fluoro-N-(thiazol-2-yl)benzenesulfonamide], the pIC50 was less than 4.52 against NaV1.1 [1]; 6.81 against NaV1.6 [2]; less than 5.00 against NaV1.1 [4]; less than 4.52 at NaV1.5 [7]; 6.41 at NaV1.6 [5].
For `CN(c1cc(F)c(S(=O)(=O)Nc2cscn2)cc1Cl)[C@H]1CCN(Cc2ccccc2)C1` [Example 38, (S)-4-((1-benzylpyrrolidin-3-yl)(methyl)amino)-5-chloro-2-fluoro-N-(thiazol-4-yl)benzenesulfonamide 2,2,2-trifluoroacetate], the pIC50 on NaV1.1 [1] is 4.75; on NaV1.6 [2] it was 6.10; against NaV1.5 [3], less than 4.52; against NaV1.1 [4], less than 5.00; at NaV1.6 [5], 5.71; at NaV1.5 [6] it was 4.58.
For the molecule `Cc1cc(S(=O)(=O)Nc2cscn2)c(F)cc1N(C)C1CCN([C@H](C)c2ccccc2)CC1` [Example 281, (R)-2-fluoro-5-methyl-4-(methyl(1-(1-phenylethyl)piperidin-4-yl)amino)-N-(thiazol-4-yl)benzenesulfonamide 2,2,2-trifluoroacetate], the pIC50 on NaV1.1 [1] was 4.84; on NaV1.5 [7], 4.88; at NaV1.6 [5] it was 7.68.
